Source: the Kinase Knowledgebase extract (Sharma et al. 2016)

What was measured:
Test in all cases: Enzyme Assay
PIK3CD (Human) = PIK3CD (Human) (UniProt O00329)
PIK3CG (human) = PIK3CG (human) (UniProt P48736)
PIK3CB (Human) = PIK3CB (Human) (UniProt P42338)
PIK3CB (Human), sequence (P42338 whole entry, looked up): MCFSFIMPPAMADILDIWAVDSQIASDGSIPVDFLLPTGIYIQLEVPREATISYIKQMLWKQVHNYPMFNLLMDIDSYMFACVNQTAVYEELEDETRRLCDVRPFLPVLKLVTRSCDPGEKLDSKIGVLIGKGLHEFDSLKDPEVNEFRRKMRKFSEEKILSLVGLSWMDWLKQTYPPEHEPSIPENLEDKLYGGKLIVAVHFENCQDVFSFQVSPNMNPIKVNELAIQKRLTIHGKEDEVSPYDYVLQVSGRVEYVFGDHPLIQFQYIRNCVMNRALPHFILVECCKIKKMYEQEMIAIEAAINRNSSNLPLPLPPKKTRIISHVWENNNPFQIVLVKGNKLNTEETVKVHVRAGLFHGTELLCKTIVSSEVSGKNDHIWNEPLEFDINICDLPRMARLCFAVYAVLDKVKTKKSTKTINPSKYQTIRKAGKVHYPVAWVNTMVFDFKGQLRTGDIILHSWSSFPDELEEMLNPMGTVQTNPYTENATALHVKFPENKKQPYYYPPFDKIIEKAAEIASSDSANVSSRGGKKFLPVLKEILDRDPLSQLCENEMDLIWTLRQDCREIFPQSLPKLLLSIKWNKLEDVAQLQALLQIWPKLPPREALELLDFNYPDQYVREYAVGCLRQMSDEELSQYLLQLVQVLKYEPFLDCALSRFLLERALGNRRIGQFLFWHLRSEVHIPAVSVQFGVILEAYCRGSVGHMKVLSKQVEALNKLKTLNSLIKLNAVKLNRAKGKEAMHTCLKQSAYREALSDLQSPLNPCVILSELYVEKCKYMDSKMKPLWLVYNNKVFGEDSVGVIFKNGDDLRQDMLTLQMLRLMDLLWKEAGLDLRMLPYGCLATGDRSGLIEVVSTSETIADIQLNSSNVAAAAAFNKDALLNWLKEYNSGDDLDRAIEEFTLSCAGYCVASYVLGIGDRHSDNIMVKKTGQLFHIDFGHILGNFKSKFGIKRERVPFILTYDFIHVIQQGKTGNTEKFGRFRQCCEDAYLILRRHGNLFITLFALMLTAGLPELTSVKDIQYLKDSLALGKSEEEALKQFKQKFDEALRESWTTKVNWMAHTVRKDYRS

PIK3CD (Human), sequence (O00329 whole entry, looked up): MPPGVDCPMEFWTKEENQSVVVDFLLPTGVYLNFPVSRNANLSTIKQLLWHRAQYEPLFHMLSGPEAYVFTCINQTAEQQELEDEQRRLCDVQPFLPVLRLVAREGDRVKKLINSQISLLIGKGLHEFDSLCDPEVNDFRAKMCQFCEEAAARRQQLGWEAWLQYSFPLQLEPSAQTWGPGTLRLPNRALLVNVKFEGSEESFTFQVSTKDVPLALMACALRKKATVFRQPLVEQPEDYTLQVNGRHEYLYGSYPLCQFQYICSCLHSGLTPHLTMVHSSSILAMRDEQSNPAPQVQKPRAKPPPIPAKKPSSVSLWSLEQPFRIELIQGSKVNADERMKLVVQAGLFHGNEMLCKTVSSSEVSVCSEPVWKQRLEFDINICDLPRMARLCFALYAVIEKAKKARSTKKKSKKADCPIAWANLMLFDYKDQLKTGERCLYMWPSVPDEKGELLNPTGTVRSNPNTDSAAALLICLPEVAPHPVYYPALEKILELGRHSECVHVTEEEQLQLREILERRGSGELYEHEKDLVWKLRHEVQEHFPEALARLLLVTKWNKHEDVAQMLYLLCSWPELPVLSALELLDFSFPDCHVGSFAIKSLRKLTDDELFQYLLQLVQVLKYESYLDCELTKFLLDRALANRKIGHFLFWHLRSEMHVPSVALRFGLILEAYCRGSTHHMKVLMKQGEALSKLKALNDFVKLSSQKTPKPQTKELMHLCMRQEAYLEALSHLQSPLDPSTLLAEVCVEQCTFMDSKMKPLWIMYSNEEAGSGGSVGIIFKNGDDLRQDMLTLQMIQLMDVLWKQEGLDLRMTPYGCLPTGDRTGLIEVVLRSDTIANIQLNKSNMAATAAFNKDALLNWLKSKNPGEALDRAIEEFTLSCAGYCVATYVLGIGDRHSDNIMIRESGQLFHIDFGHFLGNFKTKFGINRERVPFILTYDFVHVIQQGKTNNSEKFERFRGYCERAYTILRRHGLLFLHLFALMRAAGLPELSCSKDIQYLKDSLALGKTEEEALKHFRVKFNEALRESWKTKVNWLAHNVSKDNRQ
PIK3CG (human), sequence (P48736 whole entry, looked up): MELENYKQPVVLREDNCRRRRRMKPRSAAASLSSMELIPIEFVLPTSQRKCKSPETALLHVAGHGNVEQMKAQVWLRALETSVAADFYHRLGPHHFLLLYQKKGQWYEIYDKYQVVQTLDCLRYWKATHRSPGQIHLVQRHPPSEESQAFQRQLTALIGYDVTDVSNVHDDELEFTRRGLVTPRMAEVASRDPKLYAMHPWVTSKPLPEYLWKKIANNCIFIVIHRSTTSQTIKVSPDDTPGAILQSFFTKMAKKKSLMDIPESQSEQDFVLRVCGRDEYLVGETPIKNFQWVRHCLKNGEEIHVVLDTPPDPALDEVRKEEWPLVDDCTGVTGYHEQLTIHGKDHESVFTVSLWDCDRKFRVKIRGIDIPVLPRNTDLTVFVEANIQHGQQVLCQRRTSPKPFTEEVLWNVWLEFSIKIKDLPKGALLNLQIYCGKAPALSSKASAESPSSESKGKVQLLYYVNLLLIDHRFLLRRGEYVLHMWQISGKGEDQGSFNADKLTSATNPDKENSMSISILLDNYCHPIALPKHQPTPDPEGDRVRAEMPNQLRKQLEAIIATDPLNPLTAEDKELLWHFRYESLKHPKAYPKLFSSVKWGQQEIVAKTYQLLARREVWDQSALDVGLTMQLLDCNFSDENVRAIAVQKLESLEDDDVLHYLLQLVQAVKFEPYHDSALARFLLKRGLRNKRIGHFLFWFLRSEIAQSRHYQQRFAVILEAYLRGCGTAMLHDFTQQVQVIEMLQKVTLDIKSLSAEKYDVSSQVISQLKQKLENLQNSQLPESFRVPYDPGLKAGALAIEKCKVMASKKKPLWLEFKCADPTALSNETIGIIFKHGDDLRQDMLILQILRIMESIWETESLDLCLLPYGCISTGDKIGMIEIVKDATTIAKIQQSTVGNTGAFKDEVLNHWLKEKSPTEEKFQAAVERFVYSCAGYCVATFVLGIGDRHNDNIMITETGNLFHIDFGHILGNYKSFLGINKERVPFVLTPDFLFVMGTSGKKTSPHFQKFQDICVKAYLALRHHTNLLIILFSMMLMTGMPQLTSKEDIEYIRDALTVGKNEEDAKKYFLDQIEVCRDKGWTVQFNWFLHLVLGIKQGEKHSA

SMILES	IC50 (PIK3CD (Human)) [nM]	IC50 (PIK3CG (human)) [nM]	IC50 (PIK3CB (Human)) [nM]
N#Cc1c(N)ncnc1OCc1cc2ncc(Cl)n2c(=O)n1-c1ccccc1	136		
N#Cc1c[nH]c2ncnc(N3CC[C@H]3c3nn4cccc4c(=O)n3-c3ccccc3)c12	93		
CC(Nc1ncnc2[nH]cc(C#N)c12)c1cc2cccn2c(=O)n1-c1ccccc1 (configuration not stated)		105	
Nc1ncc(C(=O)C(F)F)c(N2CC[C@H]2c2nn3ccc(Cl)c3c(=O)n2-c2ccccc2)n1	38	10	
C=Cc1ccn2nc([C@@H]3CCN3c3ncnc4[nH]cc(C#N)c34)n(-c3ccccc3)c(=O)c12	300		
C[S@@+]([O-])c1c[nH]c2ncnc(N3C[C@@H](C#N)C[C@H]3c3nn4ccc(Cl)c4c(=O)n3-c3ccccc3)c12	64	16	
O=c1c2c(Br)ccn2nc([C@@H]2CCN2c2ncnc3[nH]cnc23)n1-c1ccccc1	156	287	
Nc1ncc([N+](=O)O)c(N2CC[C@H]2c2nn3ccc(Cl)c3c(=O)n2-c2ccccc2)n1	40	25	

Further lines, results first:

IC50 (PIK3CD (Human)) [nM]	IC50 (PIK3CG (human)) [nM]	IC50 (PIK3CB (Human)) [nM]	SMILES
26	231		N#Cc1n[nH]c2ncnc(N3CCC[C@H]3c3nn4cccc4c(=O)n3-c3ccccc3)c12
5	89		COc1cccc(-n2c([C@@H]3CCCN3c3ncnc4[nH]cc(C#N)c34)nn3cccc3c2=O)c1
12	18	1580	C[C@H]1CN(c2nc(N)nc3c2C(=O)CCN3)[C@@H]1c1nn2ccc(Cl)c2c(=O)n1-c1ccccn1
21	38	256	C[S@+]([O-])c1c[nH]c2ncnc(N3C[C@@H](C#N)C[C@H]3c3nn4ccc(Cl)c4c(=O)n3-c3ccccc3)c12
1	15	47	COc1ncc(-c2n[nH]c3ncnc(N4CCC[C@H]4c4nn5ccc(Cl)c5c(=O)n4-c4ccccc4)c23)cn1
6	40		Nc1nc(N2CCC[C@H]2c2nn3cccc3c(=O)n2-c2ccccc2)c2nc[nH]c2n1
